# According to US12085534B2, “Multiplexable super-resolution force spectroscopy using ultrasound methods and magnetic detection” (University of Houston System, priority 2018, dated 2024):
# System: 11-bp DNA: ds(CCAAT CGA CCC)
# Test: SURFS force spectrum of drug-bound DNA duplex (dissociation voltage)
# Format: binding
# Settings: daunomycin-11-bp DNA vs 12-bp DNA
# Description: A piezo plate was placed on a piece of rubber. On top of the piezo, a water reservoir was constructed. The sample was mounted on a glass rod for scanning. The bottom of the sample, which contains the immobilized molecular system, makes contact with the water surface prior to ultrasound application. The water level was carefully monitored to be constant during experiment. […] A DNA duplex with 12-basepair (bp) was used to calculate the force resolution. The dissociation voltage was determined to be 0.204 V on the function generator, with ±0.001 V resolution. […] Because the acoustic radiation force is proportional to the ultrasound power, or V^2, the force resolution can be calculated as δF=(2δV/V)*F=(2*0.001/0.204)*45=0.5 pN (1)
# In FIG. 4a, the force spectra of 12-bp DNA and daunomycin bound 11-bp DNA are compared. The two dissociation voltages were well distinguished, with the former at 0.204 V and the latter at 0.226 V. However, previous techniques of the prior art cannot distinguish the two forces, which are 45^±2 and 48^±2 pN respectively.
structure (smiles),measurement,value
COc1cccc2c1C(=O)c1c(O)c3c(c(O)c1C2=O)C[C@@](O)(C(C)=O)C[C@@H]3O[C@H]1C[C@H](N)[C@H](O)[C@H](C)O1 [daunomycin],binding strength compared with 12-bp DNA,stronger than 12-bp DNA
